Laboratory results: patent US20030203864A1, “Treatment of cancer” (priority 2002, published 2003)
Strand notation (5' to 3'): a small letter for the sugar, then the base; units joined by * are phosphorothioate-linked, units joined directly phosphodiester-linked; [ ] holds rarer units or linkages, { } end groups; capitals alone tell only the bases. [invdT] = inverted (3'-3') thymidine; d = 2'-deoxy (DNA)

Key:
[1] = tested on: bovine aortic endothelial cells; assay: 3H-thymidine incorporation into DNA, aortic endothelial cells; assay type: cell-based; conditions: for basal endothelial DNA synthesis: no added insulin, 0.25% serum; for insulin-inducible DNA synthesis: inhibitor added 2 h before insulin 500 nM, PD98059 10 and 30 μM, wortmannin 0.3 and 1 μM, SB202190 100 and 500 nM
Protocol: ^3H-Thymidine incorporation into DNA. Growth-arrested endothelial cells at 90% confluence in 96 well plates were incubated twice with the oligonucleotides prior to the addition of insulin. […] After 18 h of exposure to insulin, the cells were pulsed with 200,000 cpm/well of methyl-3H thymidine (NEN-DuPont) for 6 h.

Egr-1 protein = assay: Western blot of Egr-1 protein in endothelial cells; assay type: cell-based, bovine; conditions: for insulin-inducible Egr-1 protein synthesis: 0.8 μM oligonucleotide
Protocol: Antisense oligonucleotide delivery and Western blot analysis. Growth arrested cells in 100 mm dishes were incubated with the indicated oligonucleotides 24 h and 48 h after the initial change of medium. When oligonucleotide was added a second time, the cells were incubated with various concentrations of insulin and harvest 1 h subsequently. […] Lysates were resolved by electrophoresis on 8% denaturing SDS-polyacrylamide gels, transferred to PDVF nylon membranes (NEN-DuPont), blocked with skim milk powder, then incubated with polyclonal antibodies to Egr-1 (Santa Cruz Biotechnology, Inc) and monoclonal horseradish peroxidase-linked mouse anti-rabbit Ig secondary antibodies followed by chemiluminescent detection (NEN-DuPont).

[2] = tested on: bovine aortic endothelial cells; assay: In vitro injury (scrape) endothelial regrowth; assay type: cell-based; conditions: for endothelial regrowth stimulated by insulin after injury: 0.8 μM oligonucleotide
Protocol: In vitro injury. Growth-arrested cells at 90% confluence were incubated with antisense oligonucleotides and insulin at various concentrations as described above, then were scraped by drawing a sterile wooden toothpick across the monolayer (Khachigian et al., 1996). Following 48-72 h, the cells were fixed in 4% formalin, stained with hemotoxylin/eosin then photographed.

Egr-1 [3] = assay: Transient transfection CAT reporter assay (pEBS1^3foscat), Egr-1-dependent gene expression; assay type: cell-based, bovine; conditions: growth-arrested endothelial cells, 24 h; glucose 5 to 30 mM, insulin 100 nM, FGF-2 25 ng/ml
Protocol: Transient transfection analysis and, CAT assay. The endothelial cells were grown to 60-70% confluence in 100 mm. dishes and transiently transfected with 10 μg of the indicated chloramphenicol acetyl transferase (CAT)-based promoter reporter construct using FuGENE6 (Roche). The cells were rendered growth-quiescent by incubation 48 h in 0.25% FBS, and stimulated with various agonists for 24 h prior to harvest and assessment of CAT activity. CAT activity was measured and normalized to the concentration of protein in the lysates (determined by Biorad Protein Assay) as previously described (Khachigian, L. M. and Chesterman, C. N. (1999), Circ. Res., 84:1258-1267).

Egr-1 mRNA = assay: RT-PCR and Northern blot of Egr-1 mRNA in endothelial cells; assay type: cell-based, bovine; conditions: growth-quiescent endothelial cells, within 1 h of agonist
Protocol: Northern blot analysis. Total RNA (12 μg/well) of growth-arrested endothelial cells (prepared using TRIzol Reagent (Life Technologies) in accordance with the manufacturer's instructions) previously exposed to various agonists for 1 h was resolved by electrophoresis on denaturing 1% agarose-formialdehyde gels. Following transfer overnight to Hybond-N+ nylon membranes (Amersham), the blots were hybridized with ^32P-labeled Egr-1 cDNA prepared using the Nick Translation Kit overnight (Roche). The membranes were washed and radioactivity visualized by autoradiography as previously described (Khachigian et al., 1995).
RT-PCR. Reverse transcription was performed with 8 μg of total RNA using M-MLV reverse transcriptase. Egr-1 cDNA was amplified (334 bp product (Delbridge, G. J. and Khachigian, L. M. (1997), Circ. Res., 81:282-288)) using Taq polymerase by heating for 1 min at 94° C., and cycling through 94° C. for 1 min, 94° C. for 1 min, 55° C. for 1 min, and 72° C. for 1 min. Following thirty cycles, a 5 min extension at 72° C. was carried out. Samples were electrophoresed on 1.5% agarose gel containing ethidium bromide and photographed under ultraviolet illumination. β-actin amplification (690 bp product) was performed essentially as above. The sequences of the primers were: Egr-1 forward primer (5′-GCA CCC AAC AGT GGC AAC-3′) (SEQ ID NO:18), Egr-1 reverse primer (5′-GGG ATC ATG GGA ACC TGG-3′) (SEQ ID NO: 19), β-actin forward primer (5′-TGACGGGGTCACCCACACTGTGCCCATCTA 3′) (SEQ ID NO:20), and β-actin reverse primer (5′-CTAGAAGCATTTGCGGTGGACGATGGAGGG-3′) (SEQ ID NO:21).

EGR-1 [4] = assay: Western blot of EGR-1 in HepG2 cells; assay type: cell-based, human
Primary rat aortic SMCs = assay: SMC proliferation assay (Coulter counter); assay type: cell-based
Protocol: Culture conditions and DNAzyme transfection. Primary rat aortic SMCs were obtained from Cell Applications, Inc., and grown in Waymouth's medium, pH 7.4, containing 10% fetal bovine serum (FBS), 50 μg/ml streptomycin and 50 IU/ml penicillin at 37° C. in a humidified atmosphere of 5% CO2 SMCs were used in experiments between passages 3-7. Pup rat SMCs (WKY12-22 (as described in Lernire et al, 1994, the entire contents of which are incorporated herein by reference)) were grown under similar conditions. […] After 18 h, the cells were washed with phosphate-buffered saline (PBS), pH 7.4 prior to transfection a second time in 5% FBS.
Assays of cell proliferation. Growth-quiescent SMCs in 96-well titer plates (Nunc-InterMed) were transfected with ED5 or ED5SCR as above, then exposed to 5% FBS at 37° C. for 72 h. The cells were rinsed with PBS, pH 7.4, trypsinized and the suspension was quantitated using an automated Coulter counter.

Sequence of EGR-1 (P18146 whole entry): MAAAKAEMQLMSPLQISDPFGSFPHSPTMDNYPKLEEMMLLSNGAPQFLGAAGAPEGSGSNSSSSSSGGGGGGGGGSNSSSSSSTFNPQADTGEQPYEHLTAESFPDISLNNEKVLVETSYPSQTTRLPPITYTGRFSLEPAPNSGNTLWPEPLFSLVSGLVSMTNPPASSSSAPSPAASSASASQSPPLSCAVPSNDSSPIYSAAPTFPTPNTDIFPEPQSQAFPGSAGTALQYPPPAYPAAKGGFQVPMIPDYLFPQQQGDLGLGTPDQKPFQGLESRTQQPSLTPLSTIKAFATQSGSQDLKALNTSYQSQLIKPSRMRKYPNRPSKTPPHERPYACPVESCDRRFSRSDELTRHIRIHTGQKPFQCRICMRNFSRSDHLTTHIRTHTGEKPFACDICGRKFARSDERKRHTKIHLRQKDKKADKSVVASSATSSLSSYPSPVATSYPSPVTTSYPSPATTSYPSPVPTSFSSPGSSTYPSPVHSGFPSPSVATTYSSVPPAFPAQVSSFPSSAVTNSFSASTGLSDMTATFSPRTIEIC

AS2C: size-matched phosphorothioate-linked counterpart of AS2 with similar base composition, 5′-GsCsAsCsTsTsCsTsGsCsTsGsTsCsC-3′ (DNA dG*dC*dA*dC*dT*dT*dC*dT*dG*dC*dT*dG*dT*dC*dC) [reference compound]
basal endothelial DNA synthesis ([1]; 0.8 μM oligonucleotide): little effect
insulin-inducible Egr-1 protein synthesis (Egr-1 protein): lack of attenuation
endothelial regrowth stimulated by insulin after injury [2]: not significantly different

O=C[C@H](O)[C@@H](O)[C@H](O)[C@H](O)CO [glucose]
Egr-1 binding activity (CAT reporter activity) (Egr-1 [3]): did not increase

CCCCCCCCCCCCCC(=O)O[C@@H]1[C@@H](C)[C@@]2(O)[C@@H](C=C(CO)C[C@]3(O)C(=O)C(C)=C[C@@H]23)[C@@H]2C(C)(C)[C@]12OC(C)=O [PMA, Phorbol-12-myristrate 13-acetate, reference compound]
Egr-1 mRNA levels (Egr-1 mRNA): elevated steady-state Egr-1 mRNA levels

SEQ ID NO:24: size matched DNAzyme with different sequence, 5′-tcagctgcaGGCTAGCTACAACGActcggcctt (DNA TCAGCTGCAGGCTAGCTACAACGACTCGGCCT; DNA, [invdT] at 3' end, backbone not given here) [reference compound]
EGR-1 expression in HepG2 cells (EGR-1 [4]): no effect

Oc1ccc(-c2nc(-c3ccncc3)c(-c3ccc(F)cc3)[nH]2)cc1 [SB202190, reference compound]
insulin-inducible DNA synthesis [1]: failed to affect DNA synthesis

fibroblast growth factor-2 [FGF-2]
Egr-1 mRNA levels (Egr-1 mRNA): elevated steady-state Egr-1 mRNA levels
Egr-1 binding activity (CAT reporter activity) (Egr-1 [3]): increased

insulin
increase in DNA synthesis ([1]; insulin 100 nM): 100%
increase in DNA synthesis ([1]; insulin 500 nM): 200%
Egr-1 mRNA levels (Egr-1 mRNA): elevated steady-state Egr-1 mRNA levels
Egr-1 binding activity (CAT reporter activity) (Egr-1 [3]): did increase
Egr-1 protein synthesis (Egr-1 protein; insulin 100 nM and 500 nM, within 1 h): induced Egr-1 protein synthesis
population of cells in the denuded zone after injury ([2]; insulin 500 nM at time of injury, 3 days): significantly increased

COc1cccc(-c2cc(=O)c3ccccc3o2)c1N [PD98059, reference compound]
insulin-inducible DNA synthesis [1]: inhibited insulin-inducible DNA synthesis in a dose-dependent manner

AS2: Phosphorothioate-linked antisense oligonucleotide to translational start site of Egr-1 mRNA, 5′-CsTsTsGsGsCsCsGsCsTsGsCsCsAsT-3′ (DNA dC*dT*dT*dG*dG*dC*dC*dG*dC*dT*dG*dC*dC*dA*dT)
insulin-inducible 3H-thymidine incorporation ([1]; 0.4 μM oligonucleotide (vs 0.8 μM), insulin 500 nM): less effectively
DNA synthesis inducible by insulin ([1]; 0.8 μM oligonucleotide, insulin 500 nM and 1000 nM): significantly inhibited
basal endothelial DNA synthesis ([1]; 0.8 μM oligonucleotide): inhibited
insulin-inducible Egr-1 protein synthesis (Egr-1 protein): inhibited
endothelial regrowth stimulated by insulin after injury [2]: significantly inhibited
inhibition of SMC proliferation stimulated by serum (Primary rat aortic SMCs; 0.1 μM, 5% FBS, 3 days): failed to inhibit proliferation
SMC growth (Primary rat aortic SMCs; 1 μM): able to inhibit SMC growth
